Results taken from patent US12011444B2, “N-substituted indole derivatives as PGE2 receptor modulators” (Idorsia Pharmaceuticals Ltd, priority 2015, dated 2024).
pIC50: −log10 of the molar value.

Tests used:
PTGER2 (EP2) = PTGER2 (EP2) (Homo sapiens (Human), UniProt P43116); test: hEP2 b-arrestin assay (PathHunter HEK 293 PTGER2 b-arrestin cells); format: cell-based; details: antagonistic activity on hEP2; mean where measured multiple times
How it was run: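 HEK293 cells expressing ProLink-tagged EP2 and EA-fused β-arrestin 2 (enzyme fragment complementation) were seeded 24 h, pre-incubated with compound 15 min at 37 °C, then stimulated with 5 μM PGE2 (final) for 120 min.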

PTRGER4 (EP4) = PTRGER4 (EP4) (Homo sapiens (Human), UniProt P35408); test: hEP4 b-arrestin assay (PathHunter HEK 293 PTGER4 b-arrestin cells); format: cell-based; details: antagonistic activity on hEP4; mean where measured multiple times
PTRGER4 (EP4), sequence (P35408 whole entry, looked up, the tested form may be a part): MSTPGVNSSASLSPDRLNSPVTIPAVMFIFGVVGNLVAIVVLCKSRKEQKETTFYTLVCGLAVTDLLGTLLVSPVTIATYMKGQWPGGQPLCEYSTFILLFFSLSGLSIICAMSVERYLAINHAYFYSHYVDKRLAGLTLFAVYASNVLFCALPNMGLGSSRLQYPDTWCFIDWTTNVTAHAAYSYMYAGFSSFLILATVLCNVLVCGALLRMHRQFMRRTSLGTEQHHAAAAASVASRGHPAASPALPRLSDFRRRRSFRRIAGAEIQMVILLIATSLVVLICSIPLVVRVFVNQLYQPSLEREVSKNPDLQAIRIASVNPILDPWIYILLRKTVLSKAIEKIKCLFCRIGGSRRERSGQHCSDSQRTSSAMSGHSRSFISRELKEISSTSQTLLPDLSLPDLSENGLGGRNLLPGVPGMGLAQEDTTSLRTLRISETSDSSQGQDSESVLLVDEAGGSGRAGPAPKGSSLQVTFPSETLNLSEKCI
How it was run: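 Stably transfected HEK293 cells carrying EP4–ProLink and β-arrestin 2–EA (β-gal fragment complementation), pre-incubated with compound 15 min at 37 °C, then stimulated with PGE2 (20 nM final) for 120 min at 37 °C. Chemiluminescence read after 1 h detection reagent at room temperature; activity per concentration expressed as percent of DMSO control.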

PTGER2 (EP2), sequence (P43116 whole entry, the tested form may be a part): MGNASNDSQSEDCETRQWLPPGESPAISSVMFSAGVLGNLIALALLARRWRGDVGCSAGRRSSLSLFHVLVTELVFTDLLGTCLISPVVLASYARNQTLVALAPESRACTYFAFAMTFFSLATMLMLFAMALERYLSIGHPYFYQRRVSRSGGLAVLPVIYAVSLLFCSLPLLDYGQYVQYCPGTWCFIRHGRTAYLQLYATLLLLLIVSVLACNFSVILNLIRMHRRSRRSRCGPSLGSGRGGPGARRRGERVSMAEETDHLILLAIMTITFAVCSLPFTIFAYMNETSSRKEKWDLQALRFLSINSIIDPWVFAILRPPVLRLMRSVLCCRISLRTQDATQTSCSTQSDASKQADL

Row | pIC50 (PTGER2 (EP2)) | pIC50 (PTRGER4 (EP4)) | SMILES
1 | 7.21 | 6.93 | Cc1cc(F)cc2c1cc(C)n2CCNc1cc(-c2cc(C(F)(F)F)c(C(=O)O)s2)ncn1 [compound 269]
2 | 7.34 | 6.29 | CSc1cc(-c2cc(NCCn3c(C)cc4c(C)c(F)cc(Cl)c43)ncn2)ccc1C(=O)O [compound 270]
3 | 8.30 | 6.82 | CCCc1cc(-c2cc(NCCn3c(C)cc4c(OC)cccc43)ncn2)ccc1C(=O)O [compound 271]
4 | 8.10 | 6.15 | CCOc1cc(-c2cc(NCCn3c(C)cc4cc(F)c(Cl)c(Cl)c43)ncn2)sc1C(=O)O [compound 272]
5 | 9.00 | 7.17 | CCOc1cc(-c2cc(NCCn3c(C)cc4cc(F)c(F)c(F)c43)ncn2)sc1C(=O)O [compound 273]
6 | 9.00 | 7.37 | CCOc1cc(-c2cc(NCCn3c(C)cc4c(F)cc(F)c(F)c43)ncn2)sc1C(=O)O [compound 274]
7 | 9.00 | 7.60 | CCOc1cc(-c2cc(NCCn3c(C)cc4c(F)c(F)cc(F)c43)ncn2)sc1C(=O)O [compound 275]
8 | 7.19 | 6.05 | COc1ccc(Cl)c2c1cc(C)n2CCNc1cc(-c2cc(C)c(C(=O)O)c(F)c2)ncn1 [compound 276]
9 | 7.77 | 6.38 | COc1ccc(F)c2c1cc(C)n2CCNc1cc(-c2cc(C)c(C(=O)O)c(F)c2)ncn1 [compound 277]
10 | 8.05 | 6.00 | CCOc1cc(-c2cc(NCCn3c(C)cc4c(F)c(F)ccc43)ncn2)ccc1C(=O)O [compound 278]
11 | 7.66 | 6.50 | CCOc1cc(-c2cc(NCCn3c(C)cc4c(Cl)cc(Cl)cc43)ncn2)ccc1C(=O)O [compound 279]
12 | 7.80 | 6.19 | CCOc1cc(-c2cc(NCCn3c(C)cc4c(Cl)cc(F)cc43)ncn2)ccc1C(=O)O [compound 280]
13 | 7.57 | 6.36 | CCOc1cc(-c2cc(NCCn3c(C)cc4c(Cl)ccc(F)c43)ncn2)ccc1C(=O)O [compound 281]
14 | 7.96 | 6.53 | CCOc1cc(-c2cc(NCCn3c(C)cc4c(C)cc(F)cc43)ncn2)ccc1C(=O)O [compound 282]
15 | 7.77 | 6.88 | CCc1cc(-c2cc(NCCn3c(C)cc4c(OC)cc(F)cc43)ncn2)ccc1C(=O)O [compound 283]
16 | 7.47 | 6.08 | CCOc1cc(-c2cc(NCCn3c(C)cc4cc(C)cc(Cl)c43)ncn2)ccc1C(=O)O [compound 284]
17 | 7.33 | 6.16 | CCOc1cc(-c2cc(NCCn3c(C)cc4cc(C)cc(F)c43)ncn2)ccc1C(=O)O [compound 285]
18 | 7.51 | 6.57 | COc1cc(-c2cc(NCCn3c(C)cc4c(C)ccc(F)c43)ncn2)cc(C)c1C(=O)O [compound 286]
19 | 6.74 | 6.02 | COc1ccc(Cl)c2c1cc(C)n2CCNc1cc(-c2cc(C)c(C(=O)O)c(C)c2)ncn1 [compound 287]
20 | 7.72 | 6.15 | CCc1cc(-c2cc(NCCn3c(C)cc4c(OC)ccc(Cl)c43)ncn2)ccc1C(=O)O [compound 288]
21 | 7.28 | 6.52 | COc1ccc(F)c2c1cc(C)n2CCNc1cc(-c2cc(C)c(C(=O)O)c(C)c2)ncn1 [compound 289]
22 | 7.55 | 6.99 | CCc1cc(-c2cc(NCCn3c(C)cc4c(OC)ccc(F)c43)ncn2)ccc1C(=O)O [compound 290]
23 | 7.39 | 6.98 | COc1cc(F)cc2c1cc(C)n2CCNc1cc(-c2cc(Cl)c(C(=O)O)c(Cl)c2)ncn1 [compound 291]

Row | pIC50 (PTGER2 (EP2)) | pIC50 (PTRGER4 (EP4)) | SMILES
24 | 7.28 | 6.40 | COc1ccc(Cl)c2c1cc(C)n2CCNc1cc(-c2cc(Cl)c(C(=O)O)c(Cl)c2)ncn1 [compound 292]
25 | 7.72 | 6.95 | COc1ccc(F)c2c1cc(C)n2CCNc1cc(-c2cc(Cl)c(C(=O)O)c(Cl)c2)ncn1 [compound 293]
26 | 8.10 | 8.00 | CCOc1cc(-c2cc(NCCn3c(C)cc4c(C)cc(F)c(F)c43)ncn2)sc1C(=O)O [compound 294]
27 | 7.92 | 6.02 | CCc1cc(-c2cc(NCCn3c(C)cc4c5c(cc(Cl)c43)OCO5)ncn2)ccc1C(=O)O [compound 295, 4-{6-[2-(5-Chloro-7-methyl-[1,3]dioxolo[4,5-e]indol-6-yl)-ethylamino]-pyrimidin-4-yl}-2-ethyl-benzoic acid]
28 | 8.15 | 6.59 | COc1ccc(F)c2c1cc(C)n2CCNc1cc(-c2ccc(C(=O)O)c(C3CC3)c2)ncn1 [compound 296, 2-Cyclopropyl-4-{6-[2-(7-fluoro-4-methoxy-2-methyl-indol-1-yl)-ethylamino]-pyrimidin-4-yl}-benzoic acid]
29 | 6.27 | 6.09 | Cc1cc(F)cc2c1cc(C)n2CCNc1cc(-c2ccc3[nH]c(C(F)(F)F)nc3c2)ncn1 [compound 297]
30 | 7.72 | 6.60 | Cc1sc(N)nc1-c1ccc(-c2cc(NCCn3c(C)cc4c(C)ccc(F)c43)ncn2)cc1 [compound 298, {6-[4-(2-Amino-5-methyl-thiazol-4-yl)-phenyl]-pyrimidin-4-yl}-[2-(7-fluoro-2,4-dimethyl-indol-1-yl)-ethyl]-amine]
31 | 8.00 | 7.09 | COc1cc(F)c(F)c2c1cc(C)n2CCNc1cc(-c2ccc(-c3ncno3)cc2)ncn1 [compound 299, [2-(6,7-Difluoro-4-methoxy-2-methyl-indol-1-yl)-ethyl]-[6-(4-[1,2,4]oxadiazol-5-yl-phenyl)-pyrimidin-4-yl]-amine]
32 | 7.40 | 6.31 | COc1cccc2c1cc(C)n2CCNc1cc(-c2ccc(-c3nnc(C)o3)c(F)c2)ncn1 [compound 300, {6-[3-Fluoro-4-(5-methyl-[1,3,4]oxadiazol-2-yl)-phenyl]-pyrimidin-4-yl}-[2-(4-methoxy-2-methyl-indol-1-yl)-ethyl]-amine]
33 | 6.99 | 6.45 | COc1cc(F)cc2c1cc(C)n2CCNc1cc(-c2ccc(-c3nc(C)no3)cc2)ncn1 [compound 301]
34 | 7.48 | 6.84 | COc1ccc(F)c2c1cc(C)n2CCNc1cc(-c2ccc(-c3nc(C)no3)cc2)ncn1 [compound 302, [2-(7-Fluoro-4-methoxy-2-methyl-indol-1-yl)-ethyl]-{6-[4-(3-methyl-[1,2,4]oxadiazol-5-yl)-phenyl]-pyrimidin-4-yl}-amine]
35 | 7.48 | 6.49 | COc1ccc(F)c2c1cc(C)n2CCNc1cc(-c2ccc(-c3noc(C)n3)cc2)ncn1 [compound 303, [2-(7-Fluoro-4-methoxy-2-methyl-indol-1-yl)-ethyl]-{6-[4-(5-methyl-[1,2,4]oxadiazol-3-yl)-phenyl]-pyrimidin-4-yl}-amine]
36 | 8.70 | 7.92 | COc1ccc(F)c2c1cc(C)n2CCNc1cc(-c2ccc(-c3cc(N)no3)cc2)ncn1 [compound 304, {6-[4-(3-Amino-isoxazol-5-yl)-phenyl]-pyrimidin-4-yl}-[2-(7-fluoro-4-methoxy-2-methyl-indol-1-yl)-ethyl]-amine]
37 | 6.39 | 6.68 | Cc1nnc(-c2ccc(-c3cc(NCCn4c(C)cc5c(C)ccc(F)c54)ncn3)cc2F)o1 [compound 306]
38 | 7.60 | 7.33 | COc1cc(F)c(F)c2c1cc(C)n2CCNc1cc(-c2ccc(-c3c[nH]cn3)cc2)ncn1 [compound 307, [2-(6,7-Difluoro-4-methoxy-2-methyl-indol-1-yl)-ethyl]-{6-[4-(1H-imidazol-4-yl)-phenyl]-pyrimidin-4-yl}-amine]
39 | 6.42 | 6.37 | COc1cccc2c1cc(C)n2CCNc1cc(-c2ccc(Cn3cccn3)c(F)c2)ncn1 [compound 308]
40 | 7.96 | 7.07 | COc1cc(F)cc2c1cc(C)n2CCNc1cc(-c2ccc(-c3ccn(C)n3)cc2)ncn1 [compound 309, [2-(6-Fluoro-4-methoxy-2-methyl-indol-1-yl)-ethyl]-{6-[4-(1-methyl-1H-pyrazol-3-yl)-phenyl]-pyrimidin-4-yl}-amine]
41 | 7.41 | 6.38 | COc1ccc(F)c2c1cc(C)n2CCNc1cc(-c2ccc(-n3ccc(C)n3)cc2)ncn1 [compound 310, [2-(7-Fluoro-4-methoxy-2-methyl-indol-1-yl)-ethyl]-{6-[4-(3-methyl-pyrazol-1-yl)-phenyl]-pyrimidin-4-yl}-amine]
42 | 8.40 | 6.63 | COc1cccc2c1cc(C)n2CCNc1cc(-c2ccc(-c3nc(N)sc3C)cc2)ncn1 [compound 311, {6-[4-(2-Amino-5-methyl-thiazol-4-yl)-phenyl]-pyrimidin-4-yl}-[2-(4-methoxy-2-methyl-indol-1-yl)-ethyl]-amine]
43 | 7.36 | 7.07 | COc1cc(F)cc2c1cc(C)n2CCNc1cc(-c2ccc(-c3noc(=O)[nH]3)cc2)ncn1 [compound 312, 3-(4-{6-[2-(6-Fluoro-4-methoxy-2-methyl-indol-1-yl)-ethylamino]-pyrimidin-4-yl}-phenyl)-4H-[1,2,4]oxadiazol-5-one]
44 | 8.15 | 6.96 | COc1ccc(F)c2c1cc(C)n2CCNc1cc(-c2ccc(-c3noc(=O)[nH]3)cc2)ncn1 [compound 313, 3-(4-{6-[2-(7-Fluoro-4-methoxy-2-methyl-indol-1-yl)-ethylamino]-pyrimidin-4-yl}-phenyl)-4H-[1,2,4]oxadiazol-5-one]
45 | 7.34 | 6.57 | CCCN1Cc2cc(-c3cc(NCCn4c(C)cc5c(OC)cccc54)ncn3)ccc2C1=O [compound 315, 5-{6-[2-(4-Methoxy-2-methyl-indol-1-yl)-ethylamino]-pyrimidin-4-yl}-2-propyl-2,3-dihydro-isoindol-1-one]
